What was measured:
[1] = tested on: N-methyl-4-phenyl-1,2,3,6-tetrahydropyridine induced dopaminergic neurodegeneration; settings: in vivo; cited from earlier work
complex-I = settings: mouse, in vivo; cited from earlier work
mitochondrial complex-I = test: In vivo effect on brain mitochondrial complex-I activity (NADH oxidation); parameters: species or system Sprague Dawley rats; settings: intraperitoneally for 2 weeks, brain mitochondrial (P2) fraction
Description: Various doses of MPX were administered intraperitoneally to Sprague Dawley rats for 2 weeks, while a control group was treated with saline. The rats were sacrificed one hour after the last injection, and the mitochondrial (P2) fraction was prepared from the dissected rat brains. Mitochondrial complex-I activity was based on the oxidation of NADH (5.6 mg in 1 ml water) measured at 340 nm (Ramsay et al. 1986. “Inhibition of mitochondrial NADH dehydrogenase by pyridine derivatives and its possible relation to experimental and idiopathic parkinsonism,” Biochem Biophys Res Commun 135:269-275 (this references is hereby incorporated by reference in its entirety)).

For `O=C(O[C@@H]1Cc2c(O)cc(O)cc2O[C@@H]1c1cc(O)c(O)c(O)c1)c1cc(O)c(O)c(O)c1` [(−)-epigallocatechin-3-gallate], the dopaminergic neurodegeneration [1] is listed as “prevents N-methyl-4-phenyl-1,2,3,6-tetrahydropyridine induced dopaminergic neurodegeneration”.

For `CC(=O)N[C@@H](CS)C(=O)O` [N-acetylcysteine], the “age-related decrease in complex-I activity” value (complex-I) is given as “can protect against age-related decrease in complex-I activity”.

For `N[C@@H](Cc1ccc(O)c(O)c1)C(=O)O` [Levodopa, L-3,4-dihydroxyphenylalanine], the “mitochondrial complex-I activity” value (mitochondrial complex-I) was “significantly inhibitory effect on complex-I”.
